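The compound was tested at five concentrations on cells cultured in 96-well plates, with a 48-hour exposure period. GI50 = concentration required for 50% inhibition of growth.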 Active and inactive are the calls of the source. Rule as the data show it: active = GI50 up to about 1.1 µM and inactive = higher.
What was measured:
Test in all cases: NCI-60 cell line screen, 48 h
[1] = test system: OVCAR-3
[2] = test system: KM12
[3] = test system: RPMI-8226
[4] = test system: HCC 2998
[5] = test system: HCT-15
[6] = test system: SK-MEL-28
[7] = test system: MDA-MB-231
[8] = test system: TK-10
[9] = test system: CCRF-CEM
[10] = test system: MDA-MB-435
[11] = test system: SNB-75
[12] = test system: MDA-N
[13] = test system: A498
[14] = test system: DU-145
[15] = test system: COLO 205
[16] = test system: 786-0
[17] = test system: SF-539
[18] = test system: IGROV-1
[19] = test system: UO-31
[20] = test system: NCI-H460
[21] = test system: K562
[22] = test system: OVCAR-5
[23] = test system: SN12C
[24] = test system: CAKI-1
[25] = test system: T47D
[26] = test system: HOP-62
[27] = test system: MCF7
[28] = test system: NCI-H23
[29] = test system: NCI/ADR-RES
[30] = test system: HT-29
[31] = test system: UACC-62
[32] = test system: OVCAR-4
[33] = test system: M14
[34] = test system: MOLT-4
[35] = test system: SW-620
[36] = test system: NCI-H522
[37] = test system: LOX IMVI
[38] = test system: EKVX
[39] = test system: NCI-H226
[40] = test system: SK-MEL-2
[41] = test system: U-251
[42] = test system: Hs-578T
[43] = test system: HCT-116
[44] = test system: ACHN
[45] = test system: OVCAR-8
[46] = test system: A549
[47] = test system: PC-3
[48] = test system: UACC-257
[49] = test system: SNB-19
[50] = test system: HOP-92
[51] = test system: SF-295
[52] = test system: SK-OV-3
[53] = test system: SR
[54] = test system: HL-60
[55] = test system: SK-MEL-5
[56] = test system: BT-549
[57] = test system: Malme-3M
[58] = test system: SF-268
[59] = test system: RXF 393

Measured: GI50

O=C(O)/C=N/NC(=S)NC1CCCCC1
> 100 µM: [5]
inactive: [1] > 100 µM | [2] > 100 µM | [3] > 100 µM | [4] > 100 µM | [6] > 100 µM | [7] > 100 µM | [8] > 100 µM | [9] > 100 µM | [10] > 100 µM | [11] > 100 µM | [12] > 100 µM | [13] > 100 µM | [14] > 100 µM | [15] > 100 µM | [16] > 100 µM | [17] > 100 µM | [18] > 100 µM | [19] > 100 µM | [20] > 100 µM | [21] > 100 µM | [22] > 100 µM | [23] > 100 µM | [24] > 100 µM | [25] > 100 µM | [26] > 100 µM | [27] > 100 µM | [28] > 100 µM | [29] > 100 µM | [30] > 100 µM | [31] > 100 µM | [32] > 100 µM | [33] > 100 µM | [34] > 100 µM | [35] > 100 µM | [36] > 100 µM | [37] > 100 µM | [38] > 100 µM | [39] > 100 µM | [40] > 100 µM | [41] > 100 µM | [42] > 100 µM | [43] > 100 µM | [44] > 100 µM | [45] > 100 µM | [46] > 100 µM | [47] > 100 µM | [48] > 100 µM | [49] > 100 µM | [50] > 100 µM | [51] > 100 µM | [52] > 100 µM | [53] > 100 µM | [54] > 100 µM | [55] > 100 µM | [56] > 100 µM | [57] > 100 µM

NC(=O)[N+](=CC(=S)Nc1ccccc1Cl)C(N)=O
> 100 µM: [5]
inactive: [1] > 100 µM | [2] > 100 µM | [3] > 100 µM | [4] > 100 µM | [58] > 100 µM | [7] > 100 µM | [8] > 100 µM | [9] > 100 µM | [10] > 100 µM | [12] > 100 µM | [14] > 100 µM | [15] > 100 µM | [16] > 100 µM | [17] > 100 µM | [18] > 100 µM | [19] > 100 µM | [20] > 100 µM | [21] > 100 µM | [59] > 100 µM | [22] > 100 µM | [23] > 100 µM | [24] > 100 µM | [25] > 100 µM | [26] > 100 µM | [27] > 100 µM | [28] > 100 µM | [29] > 100 µM | [30] > 100 µM | [31] > 100 µM | [32] > 100 µM | [33] > 100 µM | [34] > 100 µM | [35] > 100 µM | [36] > 100 µM | [37] > 100 µM | [38] > 100 µM | [39] > 100 µM | [40] > 100 µM | [41] > 100 µM | [42] > 100 µM | [43] > 100 µM | [44] > 100 µM | [45] > 100 µM | [46] > 100 µM | [47] > 100 µM | [48] > 100 µM | [49] 71.4 µM | [50] > 100 µM | [51] > 100 µM | [52] > 100 µM | [53] 28.7 µM | [54] > 100 µM | [55] > 100 µM | [56] 86.9 µM

C[N+](C)(C)c1ncnc2c1ncn2C1CCCCO1 (configuration not stated)
inactive: [1] > 100 µM | [2] > 100 µM | [3] > 100 µM | [6] > 100 µM | [58] > 100 µM | [7] > 100 µM | [8] > 100 µM | [9] > 100 µM | [10] > 100 µM | [11] > 100 µM | [12] > 100 µM | [13] > 100 µM | [14] > 100 µM | [15] > 100 µM | [16] > 100 µM | [18] > 100 µM | [19] > 100 µM | [20] > 100 µM | [21] > 100 µM | [59] > 100 µM | [22] > 100 µM | [23] > 100 µM | [24] > 100 µM | [25] > 100 µM | [26] > 100 µM | [27] > 100 µM | [28] > 100 µM | [29] > 100 µM | [30] > 100 µM | [31] > 100 µM | [32] > 100 µM | [33] > 100 µM | [34] > 100 µM | [35] > 100 µM | [36] > 100 µM | [37] > 100 µM | [38] > 100 µM | [40] > 100 µM | [41] > 100 µM | [42] > 100 µM | [43] > 100 µM | [44] > 100 µM | [45] > 100 µM | [46] > 100 µM | [47] > 100 µM | [48] > 100 µM | [49] > 100 µM | [50] > 100 µM | [51] > 100 µM | [52] > 100 µM | [53] > 100 µM | [54] > 100 µM | [55] > 100 µM | [56] > 100 µM | [57] > 100 µM
